Several values for one entry are separate records, joined by “and”; a condition that tells them apart may be missing. Identical values can stand only once.
Biological target: P2Y12 receptor (Homo sapiens, UniProt Q9H244)
Test: [33P]-2MeS-ADP binding to recombinant human P2Y12 membranes (Assay 3)
Parameters: expressed in transfected cells; host or cells: HEK cells
Settings: for IC50 / Ki: HEK cell membranes expressing human P2Y12, competition with 33P 2MeS-ADP; for inhibition at 10 µM / % Inhibition: at highest concentration tested, 10 μM
Description: 3. Human P2Y12 Recombinant Cell Membrane Binding Assay with ^33P 2MeS-ADP.
The ability of a test compound to bind to the P2Y12 receptor was evaluated in a recombinant cell membrane binding assay. In this competitive binding assay, the test compound competed against a radiolabelled agonist for binding to the P2Y12 receptor, expressed on the cell membrane. Inhibition of binding of the labeled material was measured and correlated to the amount and potency of the test compound. Data from this assay are presented in Table F. This binding assay is a modification of the procedure in Takasaki, J. et. al, Mol. Pharmacol., 2001, Vol. 60, pg. 432.
HEK cells were transfected with the pDONR201P2Y12 vector and cultured in MEM with GlutaMAX I, Earle's salts, 25 mM HEPES (Gibco # 42360-032) containing 10% dialyzed FBS (Gibco # 26400-044), 100 μM nonessential amino acids (Gibco # 11140-050), 1 mM sodium pyruvate (Gibco # 11360-070), 0.05% geneticin (Gibco #10131-027), 3 μg/mL blasticidin (Fluka brand from Sigma # 15205), and 0.5 μg/mL puromycin (Sigma # P-8833).
Confluent cells were washed once with cold DPBS (Gibco # 14190-136). Fresh DPBS was added and the cells were scraped and centrifuged at 500×g for 5 minutes at 4° C. The cell pellets were resuspended in TEE buffer (25 mM Tris, 5 mM EDTA, 5 mM EGTA) containing 1 protease inhibitor cocktail tablet (Roche # 1 873 580) per 50 mL (called TEE+Complete) and can be flash frozen at this point.
In one embodiment, frozen cell pellets were used to prepare the membranes. In that embodiment, the frozen cell pellets were thawed on ice. In another embodiment, cell pellets may be used without flash freezing before moving on to the next step.
Cell pellets were resuspended in TEE buffer+Complete and homogenized in a glass dounce for 12 strokes. The cell suspension was centrifuged at 500×g for 5 minutes at 4° C. The supernatant was saved and centrifuged at 20,000×g for 20 minutes at 4° C. This supernatant was discarded and the cell pellet resuspended in TEE buffer+Complete and homogenized in a glass dounce for 12 strokes. This suspension was centrifuged at 20,000×g for 20 minutes at 4° C. and the supernatant discarded. The pellet was resuspended in assay buffer (50 mM Tris, 100 mM NaCl, 1 mM EDTA) containing one protease inhibitor cocktail tablet per 50 mL, and can be flash frozen as 1 mL aliquots at this point.
Dry compounds were diluted as 10 mM DMSO stocks and tested in a seven-point, three-fold dilution series run in triplicate beginning at 10 μM, final concentration. A 1 mM DMSO intermediate stock was made in a dilution plate and from this the seven dilutions were made to 5× the final concentration in assay buffer containing 0.02% BSA.
The plates were incubated at room temperature for 1 hour. The reaction was stopped using a cell harvester to transfer the reaction mixture onto GF/B UniFilter plates (Perkin Elmer # 6005177), and washed three times with wash buffer (50 mM Tris), filtering between each wash. The filter plates were dried for approximately 20 minutes in an oven at 50° C. Back seals were adhered to the filter plates and 25 uL of Microscint 20 scintillation fluid (Perkin Elmer # 6013621) were added. The filter plates were sealed, shaken for 30 minutes, and counted on a Top Count. Data were analyzed using a four-parameter curve fit with a fixed minimum and maximum experimentally defined as the average positive and negative controls on each plate, and with a hill slope equal to one.
The table below presents the IC50, Ki, and percent inhibition values for compounds tested in either washed human platelets membrane binding assay (assay #1 above) or recombinant cell membrane binding assay (Assay #3, above). Example number refers to the compound prepared as described in the example noted in the section Working Examples, above. The highest concentration of candidate compound tested is listed for each experimental run presented. […]

P2Y12 receptor, sequence (Q9H244 whole entry): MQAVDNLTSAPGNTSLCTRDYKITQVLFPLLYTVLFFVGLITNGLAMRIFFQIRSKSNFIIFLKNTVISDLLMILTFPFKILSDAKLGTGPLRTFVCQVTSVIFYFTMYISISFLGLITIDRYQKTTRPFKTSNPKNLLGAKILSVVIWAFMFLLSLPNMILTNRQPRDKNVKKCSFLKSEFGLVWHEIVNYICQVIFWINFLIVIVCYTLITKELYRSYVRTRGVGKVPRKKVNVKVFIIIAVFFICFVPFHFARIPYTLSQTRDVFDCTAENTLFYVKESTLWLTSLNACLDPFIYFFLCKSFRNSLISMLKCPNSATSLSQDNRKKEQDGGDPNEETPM

| Structure (SMILES) | IC50 | Ki | inhibition at 10 µM | % Inhibition |
| --- | --- | --- | --- | --- |
| CCc1cc2c(N3CCN(C(=O)c4ccc(C(F)(F)F)cc4)CC3)nc(SCC(=O)OC)nc2s1 [Example 46, Methyl [(6-ethyl-4-{4-[4-(trifluoromethyl)benzoyl]piperazin-1-yl}thieno[2,3-d]pyrimidin-2-yl)thio]acetate] | > 10000 nM | > 6700 nM | 41.8% | – |
| CCc1cc2c(N3CCN(C(=O)/C=C/c4ccccc4)CC3)nc(SCC(=O)OC)nc2s1 [Example 47, Methyl [(6-ethyl-4-{4-[(2E)-3-phenylprop-2-enoyl]piperazin-1-yl}thieno[2,3-d]pyrimidin-2-yl)thio]acetate] | 5440 nM | 3630 nM | 48.6% | – |
| CCc1cc2c(N3CCN(C(=O)c4ccc(-n5cccn5)cc4)CC3)nc(SCC(=O)OC)nc2s1 [Example 48, Methyl [(6-ethyl-4-{4-[4-(1H-pyrazol-1-yl)benzoyl]piperazin-1-yl}thieno[2,3-d]pyrimidin-2-yl)thio]acetate] | 190 nM | 130 nM | 95.8% | – |
| CCc1cc2c(N3CCN(C(=O)c4ccc(OC(F)(F)F)cc4)CC3)nc(SCC(=O)OC)nc2s1 [Example 49, Methyl [(6-ethyl-4-{4-[4-(trifluoromethoxy)benzoyl]piperazin-1-yl}thieno[2,3-d]pyrimidin-2-yl)thio]acetate] | 5520 nM | 3680 nM | 56.8% | – |
| CCc1cc2c(N3CCN(C(=O)c4cccc5ccccc45)CC3)nc(SCC(=O)OC)nc2s1 [Example 50, Methyl ({6-ethyl-4-[4-(1-naphthoyl)piperazin-1-yl]thieno[2,3-d]pyrimidin-2-yl}thio)acetate] | > 10000 nM | > 6700 nM | 40.3% | – |
| CCc1cc2c(N3CCN(C(=O)c4cc(F)cc(F)c4)CC3)nc(SCC(=O)OC)nc2s1 [Example 51, Methyl ({4-[4-(3,5-difluorobenzoyl)piperazin-1-yl]-6-ethylthieno[2,3-d]pyrimidin-2-yl}thio)acetate] | 1580 nM | 1050 nM | 74.2% | – |
| CCc1cc2c(N3CCN(C(=O)c4ccc(C#N)cc4)CC3)nc(SCC(=O)OC)nc2s1 [Example 52, Methyl ({4-[4-(4-cyanobenzoyl)piperazin-1-yl]-6-ethylthieno[2,3-d]pyrimidin-2-yl}thio)acetate] | 2670 nM | 1780 nM | 67.7% | – |
| CCc1cc2c(N3CCN(C(=O)c4cc(F)ccc4F)CC3)nc(SCC(=O)OC)nc2s1 [Example 53, Methyl ({4-[4-(2,5-difluorobenzoyl)piperazin-1-yl]-6-ethylthieno[2,3-d]pyrimidin-2-yl}thio)acetate] | 2330 nM | 1560 nM | 68.8% | – |
| CCc1cc2c(N3CCN(C(=O)c4ccc(N(C)C)cc4)CC3)nc(SCC(=O)OC)nc2s1 [Example 54, Methyl [(4-{4-[4-(dimethylamino)benzoyl]piperazin-1-yl}-6-ethylthieno[2,3-d]pyrimidin-2-yl)thio]acetate] | 6190 nM and 4440 nM | 3560 nM and 2960 nM | 47.8% | 61.77% |
| CCc1cc2c(N3CCN(C(=O)c4ccc5ccccc5c4)CC3)nc(SCC(=O)OC)nc2s1 [Example 55, Methyl ({6-ethyl-4-[4-(2-naphthoyl)piperazin-1-yl]thieno[2,3-d]pyrimidin-2-yl}thio)acetate] | 1470 nM | 980 nM | 61.2% | – |
| CCc1cc2c(N3CCN(C(=O)c4ccccc4)CC3)nc(SCC(=O)OC)nc2s1 [Example 56, Methyl {[4-(4-benzoylpiperazin-1-yl)-6-ethylthieno[2,3-d]pyrimidin-2-yl]thio}acetate] | 3040 nM | 1520 nM | 64.1% | – |
| CCOc1ccc(C(=O)N2CCN(c3nc(SCC(=O)OC)nc4sc(CC)cc34)CC2)cc1 [Example 57, Methyl ({4-[4-(4-ethoxybenzoyl)piperazin-1-yl]-6-ethylthieno[2,3-d]pyrimidin-2-yl}thio)acetate] | 1050 nM | 524 nM | 80.8% | – |
| CCc1cc2c(N3CCN(C(=O)CCOC)CC3)nc(SCC(=O)OC)nc2s1 [Example 58, Methyl ({6-ethyl-4-[4-(3-methoxypropanoyl)piperazin-1-yl]thieno[2,3-d]pyrimidin-2-yl}thio)acetate] | 5250 nM | 2620 nM | 53.6% | – |
| CCc1cc2c(N3CCN(C(=O)c4ccc(OC)cc4)CC3)nc(SCC(=O)OC)nc2s1 [Example 59, Methyl ({6-ethyl-4-[4-(4-methoxybenzoyl)piperazin-1-yl]thieno[2,3-d]pyrimidin-2-yl}thio)acetate] | 2970 nM | 1480 nM | 67.1% | – |
| CCc1cc2c(N3CCN(C(=O)c4cccc(C(F)(F)F)c4)CC3)nc(SCC(=O)OC)nc2s1 [Example 60, Methyl [(6-ethyl-4-{4-[3-(trifluoromethyl)benzoyl]piperazin-1-yl}thieno[2,3-d]pyrimidin-2-yl)thio]acetate] | 4870 nM | 3160 nM | 60.8% | – |
| CCc1cc2c(N3CCN(C(=O)c4cccc(C)c4)CC3)nc(SCC(=O)OC)nc2s1 [Example 61, Methyl ({6-ethyl-4-[4-(3-methylbenzoyl)piperazin-1-yl]thieno[2,3-d]pyrimidin-2-yl}thio)acetate] | 1910 nM | 1240 nM | 78.5% | – |
| CCc1cc2c(N3CCN(C(=O)c4ccc5[nH]ccc5c4)CC3)nc(SCC(=O)OC)nc2s1 [Example 62, Methyl ({6-ethyl-4-[4-(1H-indol-5-ylcarbonyl)piperazin-1-yl]thieno[2,3-d]pyrimidin-2-yl}thio)acetate] | 5860 nM | 3530 nM | 50.9% | – |
| CCc1cc2c(N3CCN(C(=O)c4ccc5cc[nH]c5c4)CC3)nc(SCC(=O)OC)nc2s1 [Example 63, Methyl ({6-ethyl-4-[4-(1H-indol-6-ylcarbonyl)piperazin-1-yl]thieno[2,3-d]pyrimidin-2-yl}thio)acetate] | 1880 nM | 1130 nM | 68.1% | – |
| CCc1cc2c(N3CCN(C(=O)c4cccc(C#N)c4)CC3)nc(SCC(=O)OC)nc2s1 [Example 64, Methyl ({4-[4-(3-cyanobenzoyl)piperazin-1-yl]-6-ethylthieno[2,3-d]pyrimidin-2-yl}thio)acetate] | 157 nM and 417 nM and 330 nM | 94 nM and 252 nM and 212 nM | 91.3% | 81.22% and 90.29% |
| CCc1cc2c(N3CCN(C(=O)c4ccc5ccoc5c4)CC3)nc(SCC(=O)OC)nc2s1 [Example 65, Methyl ({4-[4-(1-benzofuran-6-ylcarbonyl)piperazin-1-yl]-6-ethylthieno[2,3-d]pyrimidin-2-yl}thio)acetate] | 620 nM | 370 nM | 81% | – |
| CCc1cc2c(N3CCN(C(=O)c4ccc(-c5csnn5)cc4)CC3)nc(SCC(=O)OC)nc2s1 [Example 66, Methyl [(6-ethyl-4-{4-[4-(1,2,3-thiadiazol-4-yl)benzoyl]piperazin-1-yl}thieno[2,3-d]pyrimidin-2-yl)thio]acetate] | 450 nM | 270 nM | 74.6% | – |
| CCc1cc2c(N3CCN(C(=O)c4ccc5c(c4)OCC5)CC3)nc(SCC(=O)OC)nc2s1 [Example 67, Methyl ({4-[4-(2,3-dihydro-1-benzofuran-6-ylcarbonyl)piperazin-1-yl]-6-ethylthieno[2,3-d]pyrimidin-2-yl}thio)acetate] | 1230 nM | 740 nM | 79.7% | – |
